Here are results for 11 substances from patent publication US20160153991A1, “Synbodies for Detection of Human Norovirus” (priority 2013, published 2016).

Common to all, as to format: binding, Norovirus
One assay has as its target nVLP GII.4. In words: Surface plasmon resonance (SPR) screening of optimized peptides against GII.4. The note with it: unpurified peptides against nVLP GII.4; for kd-1: SPR dissociation rate; for % Stability / Avg Binding (Spot 1/2): SPR. Here is the method:
These 96 peptides were synthesized and tested unpurified against GII.4 via surface plasmon resonance (SPR), a sample of which is shown in FIG. 3. Peptides candidates were analyzed and selected for improved binding and slower dissociation rate. Finally, a list of 10 peptide candidates with improved binding and slower dissociation rates were chosen to construct bivalent peptide affinity reagents (synbodies).
Background: SPR reads the build-up and loss of mass on a sensor chip optically.

A further assay deals with GII.4 Minerva VLP.
In a further assay the test system is GII.4 Sydney VLP. As to conditions: GII.4 Sydney VLP (VP1 identity 95%).

Consider “AWARSNNSRSKAFNLGWGSC [Mut Peptide-81, optimized peptide]”, for which, on nVLP GII.4, the “kd-1” value is 0.00455 s, the “% Stability” value was found to be 45% and the “Avg Binding (Spot 1/2)” value is recorded as 127.9.
For “DWARKNNKRKMNFNLGWGSC [Mut Peptide-60, optimized peptide]”, on nVLP GII.4, the “kd-1” value was 0.00487 s, the “% Stability” value stood at 44% and the “Avg Binding (Spot 1/2)” value was 134.3.
With DWARSNTSRSMDFNLGWGSC [nVLP-2WT], on nVLP GII.4, the “kd-1” value was 0.0233 s and the “Avg Binding (Spot 1/2)” value worked out at 2.5.
As to LLYNKTFPHGRWSPSYPGSC [nVLP-1WT], on nVLP GII.4, the “kd-1” value is 0.00785 s, the “% Stability” value is 25% and the “Avg Binding (Spot 1/2)” value is recorded as 71.5.
Take RWHRVDLRSHTELPRYIGSC [nVLP-6WT]: at nVLP GII.4, the “kd-1” value came out at 0.00513 s, the “% Stability” value amounted to 37% and the “Avg Binding (Spot 1/2)” value worked out at 175.7.
In the case of “RWHRVKLRSHTELNRYIGSC [Mut Peptide-92, optimized peptide]”, at nVLP GII.4, the “kd-1” value worked out at 0.00355 s, the “% Stability” value is given as 57% and the “Avg Binding (Spot 1/2)” value is 229.5.
Consider “RWVRVKLRSHTELNRYIGSC [Mut Peptide-93, optimized peptide]”, for which, at nVLP GII.4, the “kd-1” value came out at 0.00332 s, the “% Stability” value came out at 60% and the “Avg Binding (Spot 1/2)” value amounted to 274.2.
On the same counts, the results for “RWVRVKLRSHTKLRYIGSC [Mut Peptide-94, optimized peptide]” are 0.00294 s, 63% and 358.2.
With “SWARSNNKRSKAFNLGWGSC [Mut Peptide-78, optimized peptide]”, on nVLP GII.4, the “kd-1” value worked out at 0.00431 s, the “% Stability” value is recorded as 46% and the “Avg Binding (Spot 1/2)” value was 168.8.
In the case of “Syn 6-6: synbody 6-6 from Table 2; scaffold not stated (Table 2 lists both nVLP6-6-1571 and nVLP6-6MAP2) (RWHRVDLRSHTELPRYIGSC)”, the “Enrichment Factor from 1 ng/μL solution” value is 16 in the assay with GII.4 Minerva VLP (GII.4 Minerva VLP (VP1 identity 100%), 1 ng/μL solution) and “n.e” in the assay with GII.4 Sydney VLP. The “enrichment of VLP (in words)” value in the assay on GII.4 Minerva VLP (either GII.4 Minerva or both GII.4 Minerva and GII.4 Sydney) is recorded as “enrichment”.
As for “VWARKNNKRKKDFNAGWGSC [Mut Peptide-53, optimized peptide]”, on nVLP GII.4, the “kd-1” value came to 0.00408 s, the “% Stability” value stood at 51% and the “Avg Binding (Spot 1/2)” value is given as 188.8.
